Data from US7129275B2, “Compositions for treating acne comprising phytandiol amine” (Coreana Cosmetics Co., Ltd., priority 2001, dated 2006).

How the values were obtained:
Assay in all cases: Minimum inhibitory concentration on reinforced clostridial agar
Conditions in all cases: 3 days at 35° C., anaerobic, complete growth inhibition
P. avidum ATCC 25577 = type: cell-based, Propionibacterium avidum
Procedure: (§1) To evaluate an antimicrobial activity of the phytandiol amine of this invention against acne pathogen, the minimum inhibitory concentration (hereinafter referred to as “MIC”) of the samples shown in Table 1 was measured as follows: The sample to be tested was added to reinforced clostridial agar medium (available from Difco Co.) in the amount of 0.001–0.1%, followed by solidification of the medium. The suspension of acne pathogenic bacteria found in Table 1 was streaked on the surface of the medium and the medium was incubated for 3 days at 35° C. under anaerobic condition.

P. acne ATCC 11828 = type: cell-based, Propionibacterium acnes
Procedure: as §1

P. acnes ATCC 6919 = type: cell-based, Propionibacterium acnes
Procedure: as §1

Structure (SMILES) | MIC (P. avidum ATCC 25577) [%] | MIC (P. acne ATCC 11828) [%] | MIC (P. acnes ATCC 6919) [%]
O=C(OOC(=O)c1ccccc1)c1ccccc1 [Benzoyl peroxide] | 0.1 | 0.1 | 0.1
CC[C@H]1OC(=O)[C@H](C)[C@@H](O[C@H]2C[C@@](C)(OC)[C@@H](O)[C@H](C)O2)[C@H](C)[C@@H](O[C@@H]2O[C@H](C)C[C@H](N(C)C)[C@H]2O)[C@](C)(O)C[C@@H](C)C(=O)[C@H](C)[C@@H](O)[C@]1(C)O [Erythromycin] | 0.02 | 0.02 | 0.02
